For 4 compounds, LC retention time results are on record in the RepoRT retention time repository (doi:10.1007/s11356-017-9929-x).

SMILES strings stand for the structures.

This series in a line: RP, GL Sciences Inertsil ODS-4, 150 × 2.1 mm, 3 µm, 40 °C, 0.3 mL/min, estimated dead time 1.1 min; A: water + 5 mM ammonium acetate; B: methanol + 5 mM ammonium acetate; gradient (min/%B) 0/5 30/95 50/95. The note with it: stereoisomer not certain.
For the compound `CCCC1CC(C(=O)NC(C(C)O)C2OC(SC)C(O)C(O)C2O)N(C)C1` (centres undefined), the LC retention time was 21 min.

`CCC(C(=O)O)C1CCC(C)C(C(C)C(O)C(C)C(=O)C(CC)C2OC3(C=CC(O)C4(CCC(C)(C5CCC(O)(CC)C(C)O5)O4)O3)C(C)CC2C)O1` (centres undefined): the LC retention time is 35.5 min. The value for `CN(C)CCC=C1c2ccccc2CCc2ccccc21` was 28.1 min; that for `[2H]C([2H])([2H])N(C(=O)Oc1nc(N(C)C)nc(C)c1C)C([2H])([2H])[2H]` was 22.8 min.
